Laboratory results reported in patent US10562893B2, “Benzimidazoles derivatives as Tec kinases family inhibitors” (GB005, Inc., priority 2015, dated 2020).

Columns and labels:
Human PBMCs = test: CD3/CD28 mediated PBMC proliferation assay; type: cell-based; conditions: proliferation of human PBMCs stimulated with anti-CD3 and anti-CD28, 72 hours, Cell Titer-Glo
Method in brief: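 PBMCs pre-treated 30 min with compound, then stimulated on plate-bound anti-CD3 (coated at 5 μg/mL) plus soluble anti-CD28 (2 μg/mL final) for 72 h at 37 °C. Proliferation measured as ATP by CellTiter-Glo; EC50 versus vehicle controls from dose-response curves.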

ITK = ITK (Homo sapiens (Human), UniProt Q08881); test: ITK kinase inhibition assay; type: biochemical; conditions: micro-fluidic detection, 3 hours at 25° C.
Experimental: (§1) The in vitro kinase assays were performed at Nanosyn utilizing micro-fluidic detection technology. The test compounds were serially pre-diluted in DMSO and added, by the acoustic dispensing (Labcyte® 550), directly to 384 well assay plates into 10 uL of a buffer with enzyme comprising: 100 mM HEPES, pH7.5, 5 mM MgCl2, 0.1% bovine serum albumin, 1 mM DTT, 0.01% Triton X-100 and the enzyme. Final DMSO concentration was maintained at 1% in all samples, including the controls. The reactions were initiated by addition of ATP (to the specified concentration) and the fluorescently labeled peptide substrate to a final concentration of 1 uM, and incubated for 3 hours at 25° C. Following incubation, the reactions were quenched by addition of 40 μL of termination buffer (100 mM HEPES, pH7.5, 0.01% Triton X-100, 50 mM EDTA). Terminated plates were analyzed using Caliper LabChip® 3000 microfluidic electrophoresis instrument (Caliper Life Sciences/Perkin Elmer). The enzymatic modification of the peptide substrate (phosphorylation) results in a change of net charge enabling electrophoretic separation of product from substrate. As substrate and product are separated by electrophoresis, two peaks of fluorescence are observed. Change in the relative fluorescence intensity of the substrate and product peaks was the parameter measured, reflecting enzyme activity. In the presence of inhibitor, the ratio between product and substrate is altered: signal of the product decreases, while the signal of the substrate increases. Activity in each test sample was determined as the product to sum ratio (PSR):P/(S+P), where P is the peak height of the product and S is the peak height of the FAM-cAMP substrate. For each compound, enzyme activity was measured at 12 concentrations spaced by 3× dilution intervals. Negative control samples (0%-inhibition in the absence of inhibitor, DMSO only) and positive control samples (100%-inhibition, in the absence of enzyme or in the presence of control inhibitor) were assembled in replicates of four and were used to calculate %-inhibition values in the presence of compounds. Percent inhibition (Pinh) was determined using the following equation: Pinh=(PSR0%−PSRinh)/(PSR0%−PSR100%)*100, where PSRinh is the product sum ratio in the presence of inhibitor, PSR0% is the product sum ratio in the absence of inhibitor and PSR100% is the product sum ratio in 100%-inhibition control samples. To determine IC50 values, the inhibition curves (Pinh versus inhibitor concentration) were fitted by 4 parameter sigmoid dose-response model using XLfit software (IDBS).

Tec kinase = Tec kinase (Homo sapiens (Human), UniProt P42680); test: Tec kinase inhibition assay; type: biochemical; conditions: micro-fluidic detection, 3 hours at 25° C.
Experimental: as §1, with “384well” for “384 well”, “(PSR): […],” for “(PSR):P/(S+P),”

Chain of Tec kinase (P42680 whole entry): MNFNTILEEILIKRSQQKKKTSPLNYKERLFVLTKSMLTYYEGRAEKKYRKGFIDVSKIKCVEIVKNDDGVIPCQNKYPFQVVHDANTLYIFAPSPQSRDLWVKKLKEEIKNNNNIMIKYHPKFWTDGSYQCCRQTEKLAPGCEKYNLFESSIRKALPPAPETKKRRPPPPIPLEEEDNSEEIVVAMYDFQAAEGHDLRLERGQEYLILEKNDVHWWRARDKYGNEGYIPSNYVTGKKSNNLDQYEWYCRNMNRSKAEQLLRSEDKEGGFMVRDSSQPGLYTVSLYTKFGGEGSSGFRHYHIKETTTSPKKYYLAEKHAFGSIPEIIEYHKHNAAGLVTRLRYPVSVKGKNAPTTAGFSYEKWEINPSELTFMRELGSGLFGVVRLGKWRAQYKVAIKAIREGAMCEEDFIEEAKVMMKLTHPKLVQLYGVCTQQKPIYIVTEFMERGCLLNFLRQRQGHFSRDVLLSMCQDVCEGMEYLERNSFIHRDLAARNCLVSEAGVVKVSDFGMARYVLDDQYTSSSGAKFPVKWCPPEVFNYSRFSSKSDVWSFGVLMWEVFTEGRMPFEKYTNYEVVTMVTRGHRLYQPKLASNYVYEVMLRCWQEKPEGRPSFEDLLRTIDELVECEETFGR
Chain of ITK (Q08881 whole entry): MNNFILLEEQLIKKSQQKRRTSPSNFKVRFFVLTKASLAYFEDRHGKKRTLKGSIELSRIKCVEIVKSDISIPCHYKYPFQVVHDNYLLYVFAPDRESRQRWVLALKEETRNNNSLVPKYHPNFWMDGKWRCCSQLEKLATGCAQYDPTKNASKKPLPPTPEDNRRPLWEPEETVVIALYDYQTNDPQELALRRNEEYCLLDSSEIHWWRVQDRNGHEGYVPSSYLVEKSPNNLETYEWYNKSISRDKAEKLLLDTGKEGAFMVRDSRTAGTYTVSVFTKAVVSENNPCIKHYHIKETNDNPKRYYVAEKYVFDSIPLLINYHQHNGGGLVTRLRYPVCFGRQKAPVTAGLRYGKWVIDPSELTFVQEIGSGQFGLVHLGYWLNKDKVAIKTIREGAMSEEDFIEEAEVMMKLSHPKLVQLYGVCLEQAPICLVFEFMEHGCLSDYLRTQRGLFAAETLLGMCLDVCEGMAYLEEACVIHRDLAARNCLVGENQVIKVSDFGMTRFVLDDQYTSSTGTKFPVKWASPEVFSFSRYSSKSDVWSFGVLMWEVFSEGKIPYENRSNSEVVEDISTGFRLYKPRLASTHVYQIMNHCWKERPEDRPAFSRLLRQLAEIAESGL

Row | SMILES | EC50 (ITK) [µM] | EC50 (Tec kinase) [µM] | EC50 (Human PBMCs) [µM]
1 | C=CC(=O)Nc1cccc(-n2c(NC(=O)c3ccc(-c4cnco4)s3)nc3cc(CN[C@@H](C)C(C)(C)C)ccc32)c1 [Compound 25] | < 0.01 | < 0.01 | < 0.01
2 | C=CC(=O)Nc1cccc(-n2c(NC(=O)c3ccnn3C)nc3cc(CN[C@@H](C)C(C)(C)C)ccc32)c1 [Compound 28] | < 0.01 | 0.01 to 0.1 | 0.01 to 0.1
3 | C=CC(=O)Nc1cccc(-n2c(NC(=O)c3ccno3)nc3cc(CN[C@@H](C)C(C)(C)C)ccc32)c1 [Compound 38] | < 0.01 | 0.01 to 0.1 | 0.01 to 0.1

More lines, main results first:

Row | EC50 (ITK) [µM] | EC50 (Tec kinase) [µM] | SMILES | EC50 (Human PBMCs) [µM]
4 | < 0.01 | 0.01 to 0.1 | C=CC(=O)Nc1cccc(-n2c(NC(=O)c3ccc(C(F)F)s3)nc3cc(CN[C@@H](C)C(C)(C)C)ccc32)c1 [Compound 2] | 0.01 to 0.1
5 | < 0.01 | 0.01 to 0.1 | C=CC(=O)Nc1cccc(-n2c(NC(=O)c3cccc(C#N)c3)nc3cc(CN[C@@H](C)C(C)(C)C)ccc32)c1 [Compound 9] | 0.01 to 0.1
